# Reference: article PMC11742723, “The clinical-stage drug BTZ-043 accumulates in murine tuberculosis lesions and efficiently acts against Mycobacterium tuberculosis” (Nature Communications, 2025)
# Values joined by “and” are separate entries in the source; they are usually repeats but may differ in a detail not shown here. Equal values may be shown once.
# Key:
# Mtb H37Rv [1] = experiment: BTZ-043 dose-fractionation study in Mtb-infected BALB/c mice (lung CFU); format: in vivo, Mycobacterium tuberculosis; conditions: 10 mg /kg INH; 6 weeks of treatment; individual female mice
# Mtb H37Rv [2] = experiment: BTZ-043 dose escalation study in Mtb-infected BALB/c mice (pulmonary CFU); format: in vivo, Mycobacterium tuberculosis; conditions: 25 mg/kg INH, individual female mice
# Caco-2 = conditions: cited from earlier work
# [3] = cited from earlier work
# [4] = In vitro permeability assay in Caco-2 monolayers; conditions: human; for Papp at 120 min, 25 µg/mL / Papp at 120 min, 40 µg/mL: Caco-2, Mean Papp, n=3; for Papp at 120 min, 25 µg/mL: Caco-2, 25 µg/mL; for Papp at 120 min, 40 µg/mL: Caco-2, 40 µg/mL
# Caco-2 cell monolayers = experiment: In vitro permeability assay in Caco-2 monolayers; conditions: for Concentration: replicates 1-3
structure (smiles),measurement,setting,value
"NNC(=O)c1ccncc1 [INH, isoniazid, reference compound]",pulmonary CFU counts / mouse,Mtb H37Rv [1],251 CFU counts / mouse (2×) and 876 CFU counts / mouse and 1751 CFU counts / mouse
same,pulmonary CFU counts / mouse,Mtb H37Rv [2]; 4 weeks of treatment,306600 CFU counts / mouse and 698438 CFU counts / mouse and 504563 CFU counts / mouse and 274286 CFU counts / mouse and 298200 CFU counts / mouse and 595125 CFU counts / mouse
same,pulmonary CFU counts / mouse,Mtb H37Rv [2]; 6 weeks of treatment,135000 CFU counts / mouse and 142313 CFU counts / mouse and 207692 CFU counts / mouse and 103500 CFU counts / mouse and 144000 CFU counts / mouse and 145313 CFU counts / mouse
same,pulmonary CFU counts / mouse,Mtb H37Rv [2]; 8 weeks of treatment,40714 CFU counts / mouse and 48086 CFU counts / mouse and 100000 CFU counts / mouse and 45000 CFU counts / mouse and 32560 CFU counts / mouse and 144000 CFU counts / mouse
"NC(=O)c1cnccn1 [PZA, pyrazinamide]",Papp (AB),Caco-2,70.4 10^−6 cm/s
same,Papp (BA),Caco-2,37.1 10^−6 cm/s
same,penetration into centrally necrotizing granulomas,[3],readily penetrates centrally necrotizing granulomas
same,Papp A→B at 120 min,[4]; Caco-2,49.7 to 61 ×10⁻⁶ cm/s
same,Papp B→A at 120 min,[4]; Caco-2,35 to 39.2 ×10⁻⁶ cm/s
same,"efflux ratio at 120 min, 25 µg/mL",[4]; Caco-2,0.79
same,"efflux ratio at 120 min, 40 µg/mL",[4]; Caco-2,0.57
same,"Papp at 120 min, 25 µg/mL",[4]; direction AB,49.7 ×10⁻⁶ cm/s
same,"Papp at 120 min, 25 µg/mL",[4]; direction BA,39.2 ×10⁻⁶ cm/s
same,"Papp at 120 min, 40 µg/mL",[4]; direction AB,61 ×10⁻⁶ cm/s
same,"Papp at 120 min, 40 µg/mL",[4]; direction BA,35 ×10⁻⁶ cm/s
same,permeability classification,Caco-2 cell monolayers; Caco-2,highly permeable drug
same,Concentration,"Caco-2 cell monolayers; PZA 25 μg mL^-1, direction AB, time 0 min",0 ng/mL
same,Concentration,"Caco-2 cell monolayers; PZA 25 μg mL^-1, direction AB, time 10 min",0 ng/mL and 525.202 ng/mL
same,Concentration,"Caco-2 cell monolayers; PZA 25 μg mL^-1, direction AB, time 30 min",1333.17 ng/mL and 1096.85 ng/mL and 1005.65 ng/mL
same,Concentration,"Caco-2 cell monolayers; PZA 25 μg mL^-1, direction AB, time 60 min",3321.25 ng/mL and 3452.37 ng/mL and 3341.43 ng/mL
same,Concentration,"Caco-2 cell monolayers; PZA 25 μg mL^-1, direction AB, time 90 min",3158.86 ng/mL and 3253.04 ng/mL and 3097.63 ng/mL
same,Concentration,"Caco-2 cell monolayers; PZA 25 μg mL^-1, direction AB, time 120 min",4030.2 ng/mL and 4138.52 ng/mL and 3490.73 ng/mL
same,Concentration,"Caco-2 cell monolayers; PZA 25 μg mL^-1, direction BA, time 0 min",0 ng/mL
same,Concentration,"Caco-2 cell monolayers; PZA 25 μg mL^-1, direction BA, time 10 min",1503.99 ng/mL and 1317.17 ng/mL and 1941.63 ng/mL
same,Concentration,"Caco-2 cell monolayers; PZA 25 μg mL^-1, direction BA, time 30 min",5734.38 ng/mL and 4427.73 ng/mL and 5446.92 ng/mL
same,Concentration,"Caco-2 cell monolayers; PZA 25 μg mL^-1, direction BA, time 60 min",9786.14 ng/mL and 7994.45 ng/mL and 7975.63 ng/mL
same,Concentration,"Caco-2 cell monolayers; PZA 25 μg mL^-1, direction BA, time 90 min",11259.4 ng/mL and 8631.13 ng/mL and 9901.08 ng/mL
same,Concentration,"Caco-2 cell monolayers; PZA 25 μg mL^-1, direction BA, time 120 min",13405.8 ng/mL and 11006.7 ng/mL and 13558.7 ng/mL
same,Concentration,"Caco-2 cell monolayers; PZA 40 μg mL^-1, direction AB, time 0 min",0 ng/mL
same,Concentration,"Caco-2 cell monolayers; PZA 40 μg mL^-1, direction AB, time 10 min",1048.64 ng/mL and 287.742 ng/mL and 2327.22 ng/mL
same,Concentration,"Caco-2 cell monolayers; PZA 40 μg mL^-1, direction AB, time 30 min",1430.93 ng/mL and 3432 ng/mL and 3592.69 ng/mL
same,Concentration,"Caco-2 cell monolayers; PZA 40 μg mL^-1, direction AB, time 60 min",4853.22 ng/mL and 4349.7 ng/mL and 4275.28 ng/mL
same,Concentration,"Caco-2 cell monolayers; PZA 40 μg mL^-1, direction AB, time 90 min",5770.39 ng/mL and 5601.9 ng/mL and 5436.88 ng/mL
same,Concentration,"Caco-2 cell monolayers; PZA 40 μg mL^-1, direction AB, time 120 min",4977.56 ng/mL and 4113.08 ng/mL and 4440.77 ng/mL
same,Concentration,"Caco-2 cell monolayers; PZA 40 μg mL^-1, direction BA, time 0 min",4045.86 ng/mL and 115.41 ng/mL and 340.993 ng/mL
same,Concentration,"Caco-2 cell monolayers; PZA 40 μg mL^-1, direction BA, time 10 min",3969.46 ng/mL and 1843.77 ng/mL and 2669.48 ng/mL
same,Concentration,"Caco-2 cell monolayers; PZA 40 μg mL^-1, direction BA, time 30 min",5459.68 ng/mL and 4472.97 ng/mL and 5086.94 ng/mL
same,Concentration,"Caco-2 cell monolayers; PZA 40 μg mL^-1, direction BA, time 60 min",9734.39 ng/mL and 8339.56 ng/mL and 9591.97 ng/mL
same,Concentration,"Caco-2 cell monolayers; PZA 40 μg mL^-1, direction BA, time 90 min",11611.6 ng/mL and 10257.1 ng/mL and 12377.9 ng/mL
same,Concentration,"Caco-2 cell monolayers; PZA 40 μg mL^-1, direction BA, time 120 min",12904.2 ng/mL and 13264.5 ng/mL and 15050 ng/mL
same,Calculated Amount,"Caco-2 cell monolayers; PZA (25 µg mL^-1), direction AB, compartment api, time 0 min",20066.1 and 22292.2 and 24678
same,Calculated Amount,"Caco-2 cell monolayers; PZA (25 µg mL^-1), direction AB, compartment api, time 120 min",10717.9 and 11820.9 and 10695.5
same,Calculated Amount,"Caco-2 cell monolayers; PZA (25 µg mL^-1), direction AB, compartment baso, time 0 min",0
same,Calculated Amount,"Caco-2 cell monolayers; PZA (25 µg mL^-1), direction AB, compartment baso, time 30 min",1096.85 and 1005.65
same,Calculated Amount,"Caco-2 cell monolayers; PZA (25 µg mL^-1), direction AB, compartment baso, time 60 min",3321.25 and 3452.37 and 3341.43
same,Calculated Amount,"Caco-2 cell monolayers; PZA (25 µg mL^-1), direction AB, compartment baso, time 90 min",3158.86 and 3253.04 and 3097.63
same,Calculated Amount,"Caco-2 cell monolayers; PZA (25 µg mL^-1), direction AB, compartment baso, time 120 min",4030.2 and 4138.52 and 3490.73
same,Calculated Amount,"Caco-2 cell monolayers; PZA (25 µg mL^-1), direction BA, compartment api, time 0 min",0
same,Calculated Amount,"Caco-2 cell monolayers; PZA (25 µg mL^-1), direction BA, compartment api, time 10 min",1503.99 and 1317.17 and 1941.63
same,Calculated Amount,"Caco-2 cell monolayers; PZA (25 µg mL^-1), direction BA, compartment api, time 30 min",5734.38 and 4427.73 and 5446.92
same,Calculated Amount,"Caco-2 cell monolayers; PZA (25 µg mL^-1), direction BA, compartment api, time 60 min",9786.14 and 7994.45 and 7975.63
same,Calculated Amount,"Caco-2 cell monolayers; PZA (25 µg mL^-1), direction BA, compartment api, time 90 min",11259.4 and 8631.13 and 9901.08
same,Calculated Amount,"Caco-2 cell monolayers; PZA (25 µg mL^-1), direction BA, compartment api, time 120 min",13405.8 and 11006.7 and 13558.7
same,Calculated Amount,"Caco-2 cell monolayers; PZA (25 µg mL^-1), direction BA, compartment baso, time 120 min",22133.4
same,Calculated Amount,"Caco-2 cell monolayers; PZA (40 µg mL^-1), direction AB, compartment api, time 120 min",15162.6 and 15570.7 and 14836.3
same,Calculated Amount,"Caco-2 cell monolayers; PZA (40 µg mL^-1), direction BA, compartment baso, time 120 min",27713.4 and 29783.3 and 27759.2
"CO[C@H]1/C=C/O[C@@]2(C)Oc3c(C)c(O)c4c(O)c(c(/C=N/N5CCN(C)CC5)c(O)c4c3C2=O)NC(=O)/C(C)=C\C=C\[C@H](C)[C@H](O)[C@@H](C)[C@@H](O)[C@@H](C)[C@H](OC(C)=O)[C@@H]1C [RIF, rifampicin]",penetration into the cellular rim and necrotic center,[3],at least some penetration
CC(C)=CCC/C(C)=C/CNCCNC1C2CC3CC(C2)CC1C3 (stereo not shown) [SQ109],distribution in centrally necrotizing lesions by MALDI imaging,[3]; in vivo,strong signals in the cellular rim of centrally necrotizing lesions but only poor diffusion into the avascular caseum
CC(C)/N=c1\cc2n(-c3ccc(Cl)cc3)c3ccccc3nc-2cc1Nc1ccc(Cl)cc1 [clofazimine],Papp (AB),Caco-2,0.17 10^−6 cm/s
same,Papp (BA),Caco-2,0.18 10^−6 cm/s
same,penetration into centrally necrotizing granulomas,[3],only very limited penetration
